From PMC11739599 (Nature Communications, 2025)

Tests used:
Test in all cases: KINOMEscan panel
Type in all cases: biochemical
RSK4 = RSK4 (Homo sapiens, UniProt Q9UK32)
[1] = target: RSK1 (ribosomal protein S6 kinase A1) (Homo sapiens, UniProt Q15418)
RSK2 = RSK2 (Homo sapiens, UniProt P51812)
RSK3 = RSK3 (Homo sapiens, UniProt Q15349)
Sequence of RSK3 (Q15349 whole entry): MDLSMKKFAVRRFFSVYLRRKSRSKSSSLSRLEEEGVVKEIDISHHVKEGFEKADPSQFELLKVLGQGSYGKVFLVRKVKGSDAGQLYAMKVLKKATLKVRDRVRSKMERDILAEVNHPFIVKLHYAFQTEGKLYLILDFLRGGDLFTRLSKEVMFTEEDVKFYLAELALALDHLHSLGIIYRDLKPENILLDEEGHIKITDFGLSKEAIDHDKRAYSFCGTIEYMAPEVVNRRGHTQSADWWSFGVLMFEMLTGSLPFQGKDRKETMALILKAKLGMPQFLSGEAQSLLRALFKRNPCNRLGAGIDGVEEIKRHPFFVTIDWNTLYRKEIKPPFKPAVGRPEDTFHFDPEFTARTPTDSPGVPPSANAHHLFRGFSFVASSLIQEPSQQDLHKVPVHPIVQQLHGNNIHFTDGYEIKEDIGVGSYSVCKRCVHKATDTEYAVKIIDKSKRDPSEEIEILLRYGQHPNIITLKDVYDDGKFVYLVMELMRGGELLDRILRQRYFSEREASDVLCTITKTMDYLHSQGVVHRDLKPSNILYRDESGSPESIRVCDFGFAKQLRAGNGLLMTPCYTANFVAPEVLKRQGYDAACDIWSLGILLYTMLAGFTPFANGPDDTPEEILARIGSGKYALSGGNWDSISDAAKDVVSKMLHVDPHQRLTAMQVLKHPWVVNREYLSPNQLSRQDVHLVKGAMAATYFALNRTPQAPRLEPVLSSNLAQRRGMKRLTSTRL

Sequence of RSK2 (P51812 whole entry): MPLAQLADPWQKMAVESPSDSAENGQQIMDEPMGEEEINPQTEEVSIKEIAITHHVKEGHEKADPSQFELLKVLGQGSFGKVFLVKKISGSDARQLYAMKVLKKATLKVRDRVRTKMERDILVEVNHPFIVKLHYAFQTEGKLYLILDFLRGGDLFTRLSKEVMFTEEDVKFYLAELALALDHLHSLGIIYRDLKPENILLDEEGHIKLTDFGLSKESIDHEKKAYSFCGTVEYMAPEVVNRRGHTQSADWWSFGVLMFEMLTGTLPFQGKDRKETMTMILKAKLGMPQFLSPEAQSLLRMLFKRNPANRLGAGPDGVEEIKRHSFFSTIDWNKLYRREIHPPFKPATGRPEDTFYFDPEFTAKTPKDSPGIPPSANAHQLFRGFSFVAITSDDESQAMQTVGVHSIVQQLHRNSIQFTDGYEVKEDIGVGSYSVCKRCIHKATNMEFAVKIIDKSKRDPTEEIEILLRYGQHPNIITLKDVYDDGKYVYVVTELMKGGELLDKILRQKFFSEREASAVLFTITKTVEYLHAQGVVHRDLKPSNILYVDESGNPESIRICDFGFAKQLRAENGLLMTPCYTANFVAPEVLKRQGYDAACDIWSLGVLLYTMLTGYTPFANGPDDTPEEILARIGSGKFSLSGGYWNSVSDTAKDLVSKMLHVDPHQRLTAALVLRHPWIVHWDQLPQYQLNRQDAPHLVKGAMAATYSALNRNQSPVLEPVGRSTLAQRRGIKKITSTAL
Sequence of RSK1 (ribosomal protein S6 kinase A1) (Q15418 whole entry): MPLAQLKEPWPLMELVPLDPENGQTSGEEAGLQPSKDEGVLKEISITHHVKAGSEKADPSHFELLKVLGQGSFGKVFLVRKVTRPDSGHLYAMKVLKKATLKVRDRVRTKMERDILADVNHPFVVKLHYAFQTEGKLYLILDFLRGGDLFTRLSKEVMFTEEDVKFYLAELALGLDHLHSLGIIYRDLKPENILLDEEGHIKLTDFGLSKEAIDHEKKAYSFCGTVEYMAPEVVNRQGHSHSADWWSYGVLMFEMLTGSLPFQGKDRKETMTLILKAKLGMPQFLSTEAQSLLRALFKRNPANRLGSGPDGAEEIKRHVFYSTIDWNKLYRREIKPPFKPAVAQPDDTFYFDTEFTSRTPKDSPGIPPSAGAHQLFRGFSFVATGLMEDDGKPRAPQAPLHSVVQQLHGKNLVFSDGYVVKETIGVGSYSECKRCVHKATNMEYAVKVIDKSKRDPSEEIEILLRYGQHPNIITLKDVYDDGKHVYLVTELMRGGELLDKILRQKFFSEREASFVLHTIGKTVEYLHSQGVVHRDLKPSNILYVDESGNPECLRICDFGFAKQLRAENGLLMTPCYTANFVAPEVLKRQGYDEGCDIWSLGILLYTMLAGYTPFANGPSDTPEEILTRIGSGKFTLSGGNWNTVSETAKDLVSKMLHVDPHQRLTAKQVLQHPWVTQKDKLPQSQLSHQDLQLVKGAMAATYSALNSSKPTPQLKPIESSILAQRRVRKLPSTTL
Sequence of RSK4 (Q9UK32 whole entry): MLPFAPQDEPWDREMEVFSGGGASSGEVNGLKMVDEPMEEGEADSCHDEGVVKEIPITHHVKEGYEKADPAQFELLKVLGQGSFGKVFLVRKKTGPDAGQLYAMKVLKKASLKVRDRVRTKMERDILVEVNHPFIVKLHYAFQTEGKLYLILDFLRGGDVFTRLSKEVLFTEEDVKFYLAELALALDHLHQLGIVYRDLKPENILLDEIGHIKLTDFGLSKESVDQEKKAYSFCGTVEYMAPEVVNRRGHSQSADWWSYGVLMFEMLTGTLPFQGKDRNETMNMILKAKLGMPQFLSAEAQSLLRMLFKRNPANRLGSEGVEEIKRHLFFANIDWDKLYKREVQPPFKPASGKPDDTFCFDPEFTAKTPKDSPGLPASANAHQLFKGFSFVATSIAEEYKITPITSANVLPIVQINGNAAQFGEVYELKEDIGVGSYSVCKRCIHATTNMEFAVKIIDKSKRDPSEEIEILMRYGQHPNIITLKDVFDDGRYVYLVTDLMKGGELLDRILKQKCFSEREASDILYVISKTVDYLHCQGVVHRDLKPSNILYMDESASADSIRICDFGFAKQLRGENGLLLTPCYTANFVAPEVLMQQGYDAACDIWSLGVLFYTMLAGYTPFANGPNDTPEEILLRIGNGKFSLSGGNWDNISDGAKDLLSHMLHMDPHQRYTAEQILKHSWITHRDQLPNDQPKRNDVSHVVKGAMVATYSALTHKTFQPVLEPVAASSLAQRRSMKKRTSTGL

PMD-026
IC50 (RSK4): 2 nM | IC50 [1]: 2 nM | IC50 (RSK2): 0.7 nM | IC50 (RSK3): 0.9 nM
